Measured values from patent US20260102501A1, “ANTI-CANCER NUCLEAR HORMONE RECEPTOR-TARGETING COMPOUNDS” (Nuvation Bio Inc., priority 2022, published 2026).
Numbering of substitutions follows the chain as printed.

How the values were obtained:
[1] = biological target: T1, GR (cytosol from IM-9 cells) (Homo sapiens, UniProt P04150); assay: GR binding assay (3H-Dexamethasone displacement)
T1 sequence (P04150 1-777): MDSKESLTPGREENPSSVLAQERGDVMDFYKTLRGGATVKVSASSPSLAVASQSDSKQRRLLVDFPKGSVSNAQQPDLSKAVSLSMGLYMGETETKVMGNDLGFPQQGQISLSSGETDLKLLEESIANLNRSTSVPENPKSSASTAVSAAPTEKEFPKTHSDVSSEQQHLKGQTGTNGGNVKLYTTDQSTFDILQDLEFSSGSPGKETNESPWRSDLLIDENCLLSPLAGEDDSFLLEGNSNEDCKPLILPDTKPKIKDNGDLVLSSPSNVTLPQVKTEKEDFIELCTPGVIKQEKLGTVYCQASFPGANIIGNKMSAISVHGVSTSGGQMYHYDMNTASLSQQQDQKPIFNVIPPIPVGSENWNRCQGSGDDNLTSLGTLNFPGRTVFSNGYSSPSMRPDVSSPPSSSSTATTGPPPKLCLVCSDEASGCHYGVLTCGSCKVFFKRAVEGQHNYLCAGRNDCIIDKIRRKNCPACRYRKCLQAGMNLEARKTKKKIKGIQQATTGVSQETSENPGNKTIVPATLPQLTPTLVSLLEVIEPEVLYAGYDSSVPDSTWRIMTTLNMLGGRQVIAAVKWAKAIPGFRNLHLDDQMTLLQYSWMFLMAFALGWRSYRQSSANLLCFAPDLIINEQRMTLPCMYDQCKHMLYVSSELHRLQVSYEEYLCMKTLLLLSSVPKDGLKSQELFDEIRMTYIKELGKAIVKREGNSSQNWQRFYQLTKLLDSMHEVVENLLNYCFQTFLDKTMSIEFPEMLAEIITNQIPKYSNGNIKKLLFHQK

[2] = biological target: T2, ligand binding domain of the glucocorticoid receptor (HEK293 cells stably expressing) (Homo sapiens, UniProt P04150); assay: GR antagonism assay (luciferase reporter)
T2 sequence (P04150 524-758 limits assumed): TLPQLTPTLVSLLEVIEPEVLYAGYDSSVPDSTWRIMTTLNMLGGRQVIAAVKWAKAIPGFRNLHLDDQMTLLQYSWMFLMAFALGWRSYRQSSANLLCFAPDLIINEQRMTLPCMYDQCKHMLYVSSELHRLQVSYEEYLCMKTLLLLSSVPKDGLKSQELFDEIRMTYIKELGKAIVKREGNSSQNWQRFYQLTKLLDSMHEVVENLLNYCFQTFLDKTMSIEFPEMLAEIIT
Experimental: HEK293 cells stably expressing the ligand binding domain of the glucocorticoid receptor were seeded at a density of 40000 cells/well in the assay plate. The assay plate was then incubated at 37° C., 5% CO2 for 30 minutes. Dexamethasone was added to the assay plate at 1.5 nM final concentration and the assay plate incubated at 37° C., 5% CO2 for 20 h. After the incubation period, Dual-glo luciferase reagent was added to the assay plate and mixed at room temperature for 20 minutes on an orbital shaker, before reading out on the En Vision plate reader. 50 μL of Stop & Glo reagent was added to assay plate, mixed at room temperature for 20 minutes, and read on the Envision plate reader.

LNCap cells = assay: Cell viability assay (CellTiterGlo); assay type: cell-based; conditions: Homo sapiens, 144 h, read-out: LNCap (IC50, nM)
T47D cells = assay: Cell viability assay (CellTiterGlo); assay type: cell-based; conditions: Homo sapiens, 144 h, read-out: T47D (IC50, nM)
IEC6 cells = assay: Cell viability assay (CellTiterGlo); conditions: Rattus norvegicus, IEC-6, 144 h, read-out: IEC-6 (IC50, nM)
Experimental: Cell viability assay: LNCap, 22Rv1, MCF7, MDAMB361, T47D, and IEC6 cells were seeded at a density of 500-2000 cells/well in 96 well plates, and a ‘T0’ (timepoint 0) was included along with the assay plate. The plates were then incubated at 37° C., 5% CO2 in a cell culture incubator overnight. On the next day, the ‘T0’ plate was assayed using CellTiterGlo (Promega, Inc) according to the manufacturer's instructions. The appropriate compounds were diluted in DMSO and added to the assay plate (final DMSO concentration of 0.1-0.2%) on the next day. The assay plates were incubated for 6 days at 37° C., 5% CO2. After the incubation period, the plates were assayed using CellTiterGlo (Promega, Inc) according to the manufacturer's instructions and luminescence was read on the En Vision plate reader. […] GraphPadPrism was used to analyze the data and determine GI50/IC50 values.

[3] = biological target: T3, full-length androgen receptor (HEK293 cells stably expressing) (Homo sapiens, UniProt P10275); assay: AR antagonism assay (luciferase reporter)
T3 sequence (P10275 1-920): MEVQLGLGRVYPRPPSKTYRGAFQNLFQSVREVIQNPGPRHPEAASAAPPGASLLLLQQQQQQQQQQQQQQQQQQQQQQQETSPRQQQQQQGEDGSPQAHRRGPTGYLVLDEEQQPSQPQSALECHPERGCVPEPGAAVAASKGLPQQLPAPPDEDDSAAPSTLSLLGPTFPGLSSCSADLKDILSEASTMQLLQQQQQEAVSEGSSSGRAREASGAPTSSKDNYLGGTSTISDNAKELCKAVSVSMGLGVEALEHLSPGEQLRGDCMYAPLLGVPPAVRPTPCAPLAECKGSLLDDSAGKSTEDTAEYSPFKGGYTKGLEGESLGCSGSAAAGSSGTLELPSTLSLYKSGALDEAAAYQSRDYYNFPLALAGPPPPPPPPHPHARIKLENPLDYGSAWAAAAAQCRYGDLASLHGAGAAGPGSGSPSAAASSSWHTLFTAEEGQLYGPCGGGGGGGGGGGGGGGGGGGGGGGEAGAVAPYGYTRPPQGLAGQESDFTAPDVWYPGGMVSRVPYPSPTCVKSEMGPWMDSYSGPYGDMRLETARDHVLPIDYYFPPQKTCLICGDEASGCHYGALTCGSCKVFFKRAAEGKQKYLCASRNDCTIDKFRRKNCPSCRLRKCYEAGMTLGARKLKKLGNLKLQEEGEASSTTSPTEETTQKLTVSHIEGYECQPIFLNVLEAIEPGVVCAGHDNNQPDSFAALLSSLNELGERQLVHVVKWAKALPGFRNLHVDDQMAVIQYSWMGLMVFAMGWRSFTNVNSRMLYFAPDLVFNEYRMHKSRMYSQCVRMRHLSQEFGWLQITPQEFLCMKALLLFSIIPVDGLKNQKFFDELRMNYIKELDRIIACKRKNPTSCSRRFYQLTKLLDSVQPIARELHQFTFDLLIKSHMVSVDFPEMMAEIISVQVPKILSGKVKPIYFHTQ

[4] = biological target: T4, AR (cytosol from LnCaP cells) (Homo sapiens, UniProt P10275, T878A); assay: AR binding assay (3H-R1881 displacement)
T4 sequence (P10275 1-920 T878A): T3 sequence (P10275 1-920) with T878A
Experimental: The plate was then centrifuged at 3000 rpm for 30 minutes at 4° C.

SMILES: CC#C[C@]1(O)CC[C@H]2[C@@H]3CCC4=CC(=O)CCC4=C3[C@@H](c3ccc(N(C)CCCCCCN4CCN(C(=O)Oc5ccc6nc7c(cc6c5CN(C)C)Cn5c-7cc6c(c5=O)COC(=O)[C@]6(O)CC)CC4)cc3)C[C@@]21C [Compound 29, (S)-10-((Dimethylamino)methyl)-4-ethyl-4-hydroxy-3,14-dioxo-3,4,12,14-tetrahydro-1H-pyrano[3′,4′:6,7]indolizino[1,2-b]quinolin-9-yl 4-(6-((4-((8S,11R,13S,14S,17S)-17-hydroxy-13-methyl-3-oxo-17-(prop-1-yn-1-yl)-2,3,6,7,8,11,12,13,14,15,16,17-dodecahydro-1H-cyclopenta[a]phenanthren-11-yl)phenyl)(methyl)amino)hexyl)piperazine-1-carboxylate]
- IC50 [1]: < 10 nM
- IC50 [2]: < 10 nM
- IC50 (LNCap cells): 10 to 100 nM
- IC50 (T47D cells): 10 to 100 nM
- IC50 (IEC6 cells): 101 to 1000 nM

SMILES: CC[C@@]1(O)C(=O)OCc2c1cc1n(c2=O)Cc2c-1nc1cc(F)c(C)c3c1c2[C@@H](NC(=O)OCc1ccc(NC(=O)[C@H](CCCNC(N)=O)NC(=O)[C@@H](NCCCCCCN(C)c2ccc([C@H]4C[C@@]5(C)[C@@H](CC[C@]5(OC(C)=O)C(C)=O)[C@@H]5CCC6=CC(=O)CCC6=C54)cc2)C(C)C)cc1)CC3 [Compound 59]
- IC50 [1]: 10 to 100 nM
- IC50 [3]: 101 to 1000 nM
- IC50 (LNCap cells): 10 to 100 nM
- IC50 (T47D cells): 10 to 100 nM
- IC50 [4]: 101 to 1000 nM

SMILES: CC[C@@]1(O)C(=O)OCc2c1cc1n(c2=O)Cc2cc3c(CN(C)C)c(OC(=O)N(C)Cc4ccc(NC(=O)[C@H](CCCNC(N)=O)NC(=O)[C@@H](NCCCCCCN(C)c5ccc([C@H]6C[C@@]7(C)[C@@H](CC[C@]7(OC(C)=O)C(C)=O)[C@@H]7CCC8=CC(=O)CCC8=C76)cc5)C(C)C)cc4)ccc3nc2-1 [Compound No. 60]
- IC50 [1]: < 10 nM
- IC50 [3]: > 1000 nM
- IC50 (LNCap cells): > 1000 nM
- IC50 (T47D cells): > 1000 nM
- IC50 [4]: 10 to 100 nM

SMILES: CC[C@@]1(O)C(=O)OCc2c1cc1n(c2=O)Cc2cc3c(CN(C)C)c(OC(=O)N4CCN(CCCCCCNc5ccc([C@H]6C[C@@]7(C)[C@@H](CC[C@]7(OC(C)=O)C(C)=O)[C@@H]7CCC8=CC(=O)CCC8=C76)cc5)CC4)ccc3nc2-1 [Compound No. 61, (S)-10-((dimethylamino)methyl)-4-ethyl-4-hydroxy-3,14-dioxo-3,4,12,14-tetrahydro-1H-pyrano[3′,4′:6,7]indolizino[1,2-b]quinolin-9-yl 4-(6-((4-((8S,11R,13S,14S,17R)-17-acetoxy-17-acetyl-13-methyl-3-oxo-2,3,6,7,8,11,12,13,14,15,16,17-dodecahydro-1H-cyclopenta[a]phenanthren-11-yl)phenyl)amino)hexyl)piperazine-1-carboxylate]
- IC50 [1]: < 10 nM
- IC50 [3]: 101 to 1000 nM
- IC50 (LNCap cells): 101 to 1000 nM
- IC50 (T47D cells): 10 to 100 nM
- IC50 [4]: 10 to 100 nM
